From patent US9796711B2, “Substituted pyrazolo[3,4-b]pyridin-6-carboxylic acids and method of use” (AbbVie S.àr.l., priority 2015, dated 2017)

Experiments:
ΔF508-CFTR [1] = target: T1, ΔF508-CFTR (Homo sapiens, UniProt P13569, DEL508-508); test: CFTR cell surface levels using HRP-tagged ΔF508-CFTR expressing CFBE cells, in the presence of a co-corrector; format: cell-based; details: HRP-tagged ΔF508-CFTR expressing CFBE cells, in the presence of 3 μM co-corrector; for EC50: read-out: EC50
T1 construct: host or cells: CFBE41o-, doxycycline-inducible
How it was run: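 Cells were seeded with 0.5 μg/mL doxycycline and held 68 h at 37 °C. Test compounds plus 3 μM co-corrector (final 0.1% DMSO) were then added for 20 h at 33 °C. Washed cells received HRP substrate, and luminescence was normalized between DMSO and 3 μM co-corrector controls.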

ΔF508-CFTR [2] = target: T1, ΔF508-CFTR; test: CFTR cell surface levels using HRP-tagged ΔF508-CFTR expressing CFBE cells, intrinsic corrector capacity; format: cell-based; details: HRP-tagged ΔF508-CFTR expressing CFBE cells, intrinsic corrector capacity (no co-corrector), 33° C., 20 hours; for EC50: read-out: EC50
How it was run: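 Here the cells express ΔF508-CFTR with horseradish peroxidase inserted in extracellular loop 4, so only rescued channel at the surface gives luminescent signal. Compounds act on their own, 20 h at the reduced temperature of 33 °C; values are percent activity relative to DMSO and a 3 μM corrector.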

T1 sequence (P13569 with tags, fused parts or gaps DEL508-508): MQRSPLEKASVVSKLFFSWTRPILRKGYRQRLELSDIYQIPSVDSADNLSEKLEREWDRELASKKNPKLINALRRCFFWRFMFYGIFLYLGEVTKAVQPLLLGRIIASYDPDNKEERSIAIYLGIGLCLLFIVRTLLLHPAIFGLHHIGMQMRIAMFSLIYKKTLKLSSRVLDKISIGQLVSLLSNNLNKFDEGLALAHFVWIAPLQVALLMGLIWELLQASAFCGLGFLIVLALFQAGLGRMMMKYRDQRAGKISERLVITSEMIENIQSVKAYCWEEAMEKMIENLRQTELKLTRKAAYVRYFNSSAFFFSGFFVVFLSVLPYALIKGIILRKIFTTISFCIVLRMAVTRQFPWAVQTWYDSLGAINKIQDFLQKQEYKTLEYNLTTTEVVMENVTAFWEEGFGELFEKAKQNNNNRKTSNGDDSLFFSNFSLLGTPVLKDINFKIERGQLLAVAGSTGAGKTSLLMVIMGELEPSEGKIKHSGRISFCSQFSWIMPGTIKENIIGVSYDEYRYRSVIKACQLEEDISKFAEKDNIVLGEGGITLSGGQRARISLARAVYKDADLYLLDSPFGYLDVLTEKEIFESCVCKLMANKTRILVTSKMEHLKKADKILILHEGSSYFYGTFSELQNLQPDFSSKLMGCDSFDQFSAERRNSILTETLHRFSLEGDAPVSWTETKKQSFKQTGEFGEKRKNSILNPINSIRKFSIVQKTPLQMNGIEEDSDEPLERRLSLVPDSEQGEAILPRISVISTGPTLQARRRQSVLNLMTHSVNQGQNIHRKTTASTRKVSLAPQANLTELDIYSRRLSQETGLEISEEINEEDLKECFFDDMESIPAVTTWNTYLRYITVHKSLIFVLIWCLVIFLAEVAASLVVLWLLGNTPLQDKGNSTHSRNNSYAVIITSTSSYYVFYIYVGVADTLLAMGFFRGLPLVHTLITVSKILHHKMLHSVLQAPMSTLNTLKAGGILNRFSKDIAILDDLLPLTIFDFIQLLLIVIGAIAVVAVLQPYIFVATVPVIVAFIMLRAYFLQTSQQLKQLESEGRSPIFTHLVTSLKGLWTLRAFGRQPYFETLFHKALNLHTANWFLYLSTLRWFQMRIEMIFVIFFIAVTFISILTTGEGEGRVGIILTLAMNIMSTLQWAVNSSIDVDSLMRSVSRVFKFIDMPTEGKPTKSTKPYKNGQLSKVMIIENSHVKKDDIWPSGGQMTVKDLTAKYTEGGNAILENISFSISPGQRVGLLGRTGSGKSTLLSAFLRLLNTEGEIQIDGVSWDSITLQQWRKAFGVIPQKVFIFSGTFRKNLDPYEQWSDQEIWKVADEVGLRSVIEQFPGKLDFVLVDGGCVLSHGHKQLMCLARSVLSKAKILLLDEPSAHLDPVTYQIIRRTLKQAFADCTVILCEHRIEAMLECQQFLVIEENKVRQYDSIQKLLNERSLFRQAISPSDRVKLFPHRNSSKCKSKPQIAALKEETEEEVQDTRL

Structure (SMILES) | % Activation (ΔF508-CFTR [1]) | EC50 (ΔF508-CFTR [1]) | % Activation (ΔF508-CFTR [2]) | EC50 (ΔF508-CFTR [2])
O=C1CC[C@H](COc2cc(C(=O)O)nc3c2c(C2CCC2)nn3-c2ccccc2)N1 [compound 617, 3-cyclobutyl-4-{[(2R)-5-oxopyrrolidin-2-yl]methoxy}-1-phenyl-1H-pyrazolo[3,4-b]pyridine-6-carboxylic acid] | 127.3% | > 10000 nM | 7.139% | > 10000 nM
CC1(C)OC[C@@H](COc2cc(C(=O)O)nc3c2c(C2CCC2)nn3-c2ccccc2)O1 [compound 618, 3-cyclobutyl-4-{[(4R)-2,2-dimethyl-1,3-dioxolan-4-yl]methoxy}-1-phenyl-1H-pyrazolo[3,4-b]pyridine-6-carboxylic acid] | 315.25% | 351 nM | 105.9% | 547 nM
O=C1CC[C@H](Oc2cc(C(=O)O)nc3c2c(C2CCC2)nn3-c2ccccc2)CN1 [compound 619, 3-cyclobutyl-4-{[(3S)-6-oxopiperidin-3-yl]oxy}-1-phenyl-1H-pyrazolo[3,4-b]pyridine-6-carboxylic acid] | 134.1% | > 10000 nM | 7.484% | > 10000 nM
CCC1(COc2cc(C(=O)O)nc3c2c(C2CCC2)nn3-c2ccccc2)COCOC1 [compound 620, 3-cyclobutyl-4-[(5-ethyl-1,3-dioxan-5-yl)methoxy]-1-phenyl-1H-pyrazolo[3,4-b]pyridine-6-carboxylic acid] | 323.25% | 170 nM | 147.4% | 250 nM
CN1[C@@H]2CC[C@H]1C[C@@H](Oc1cc(C(=O)O)nc3c1c(C1CCC1)nn3-c1ccccc1)C2 [compound 621, 3-cyclobutyl-4-{[(3-endo)-8-methyl-8-azabicyclo[3.2.1]octan-3-yl]oxy}-1-phenyl-1H-pyrazolo[3,4-b]pyridine-6-carboxylic acid] | 294.75% | 3140 nM | 89.46% | 3330 nM
CC1(COc2cc(C(=O)O)nc3c2c(C2CCC2)nn3-c2ccccc2)COCOC1 [compound 622, 3-cyclobutyl-4-[(5-methyl-1,3-dioxan-5-yl)methoxy]-1-phenyl-1H-pyrazolo[3,4-b]pyridine-6-carboxylic acid] | 275.2% | 67.5 nM | 124.5% | 165 nM
O=C(O)c1cc(OCCN2CCC3(CC2)OCCO3)c2c(C3CCC3)nn(-c3ccccc3)c2n1 [compound 623, 3-cyclobutyl-4-[2-(1,4-dioxa-8-azaspiro[4.5]decan-8-yl)ethoxy]-1-phenyl-1H-pyrazolo[3,4-b]pyridine-6-carboxylic acid] | 308.3% | 501 nM | 106.8% | 1160 nM
CCN(CC)CCCOc1cc(C(=O)O)nc2c1c(C1CCC1)nn2-c1ccccc1 [compound 624, 3-cyclobutyl-4-[3-(diethylamino)propoxy]-1-phenyl-1H-pyrazolo[3,4-b]pyridine-6-carboxylic acid] | 281.85% | 2210 nM | 98.14% | 3330 nM
O=C(O)c1cc(OCCN(C2CCCCC2)C2COC2)c2c(C3CCC3)nn(-c3ccccc3)c2n1 [compound 625, 3-cyclobutyl-4-{2-[cyclohexyl(oxetan-3-yl)amino]ethoxy}-1-phenyl-1H-pyrazolo[3,4-b]pyridine-6-carboxylic acid] | 326.75% | 126 nM | 135.2% | 300 nM
CS(=O)(=O)N1CCC(F)(COc2cc(C(=O)O)nc3c2c(C2CCC2)nn3-c2ccccc2)CC1 [compound 626, 3-cyclobutyl-4-{[4-fluoro-1-(methanesulfonyl)piperidin-4-yl]methoxy}-1-phenyl-1H-pyrazolo[3,4-b]pyridine-6-carboxylic acid] | 398.15% | 1010 nM | 223.1% | 2710 nM
CS(=O)(=O)C1(COc2cc(C(=O)O)nc3c2c(C2CCC2)nn3-c2ccccc2)CCOCC1 [compound 627, 3-cyclobutyl-4-{[4-(methanesulfonyl)oxan-4-yl]methoxy}-1-phenyl-1H-pyrazolo[3,4-b]pyridine-6-carboxylic acid] | 126.25% | > 10000 nM | 9.221% | > 10000 nM
O=C(O)c1cc(OCCN2CCCC2)c2c(C3CCC3)nn(-c3ccccc3)c2n1 [compound 628, 3-cyclobutyl-1-phenyl-4-[2-(pyrrolidin-1-yl)ethoxy]-1H-pyrazolo[3,4-b]pyridine-6-carboxylic acid] | 217.7% | 3330 nM | 67.69% | 3180 nM
CC(C)(COc1cc(C(=O)O)nc2c1c(C1CCC1)nn2-c1ccccc1)S(C)(=O)=O [compound 629, 3-cyclobutyl-4-[2-(methanesulfonyl)-2-methylpropoxy]-1-phenyl-1H-pyrazolo[3,4-b]pyridine-6-carboxylic acid] | 252.2% | 2160 nM | 94.42% | 3330 nM
CC1(COc2cc(C(=O)O)nc3c2c(C2CCC2)nn3-c2ccccc2)CC1 [compound 630, 3-cyclobutyl-4-[(1-methylcyclopropyl)methoxy]-1-phenyl-1H-pyrazolo[3,4-b]pyridine-6-carboxylic acid] | 323.7% | 254 nM | 136.15% | 308 nM
CC1(CCOc2cc(C(=O)O)nc3c2c(C2CCC2)nn3-c2ccccc2)CC1 [compound 631, 3-cyclobutyl-4-[2-(1-methylcyclopropyl)ethoxy]-1-phenyl-1H-pyrazolo[3,4-b]pyridine-6-carboxylic acid] | 283% | 177 nM | 99.143% | 346 nM
CS(=O)(=O)C1(COc2cc(C(=O)O)nc3c2c(C2CCC2)nn3-c2ccccc2)CCC1 [compound 632, 3-cyclobutyl-4-{[1-(methanesulfonyl)cyclobutyl]methoxy}-1-phenyl-1H-pyrazolo[3,4-b]pyridine-6-carboxylic acid] | 129.55% | > 10000 nM | 18.94% | > 10000 nM
O=C(O)c1cc(OCCC2CCCCC2)c2c(C3CCC3)nn(-c3ccccc3)c2n1 [compound 633, 3-cyclobutyl-4-(2-cyclohexylethoxy)-1-phenyl-1H-pyrazolo[3,4-b]pyridine-6-carboxylic acid] | 279.27% | 714 nM | 66.87% | 666 nM
CN1CCN(CCCOc2cc(C(=O)O)nc3c2c(C2CCC2)nn3-c2ccccc2)CC1 [compound 634, 3-cyclobutyl-4-[3-(4-methylpiperazin-1-yl)propoxy]-1-phenyl-1H-pyrazolo[3,4-b]pyridine-6-carboxylic acid] | 294.7% | 2570 nM | 122.2% | 3330 nM
CN(C)CCCOc1cc(C(=O)O)nc2c1c(C1CCC1)nn2-c1ccccc1 [compound 635, 3-cyclobutyl-4-[3-(dimethylamino)propoxy]-1-phenyl-1H-pyrazolo[3,4-b]pyridine-6-carboxylic acid] | 233.85% | 2110 nM | 86.1% | 3330 nM
CN(C)CC(C)(C)COc1cc(C(=O)O)nc2c1c(C1CCC1)nn2-c1ccccc1 [compound 636, 3-cyclobutyl-4-[3-(dimethylamino)-2,2-dimethylpropoxy]-1-phenyl-1H-pyrazolo[3,4-b]pyridine-6-carboxylic acid] | 391.3% | 790 nM | 184.1% | 617 nM
CN(C)CCOc1cc(C(=O)O)nc2c1c(C1CCC1)nn2-c1ccccc1 [compound 637, 3-cyclobutyl-4-[2-(dimethylamino)ethoxy]-1-phenyl-1H-pyrazolo[3,4-b]pyridine-6-carboxylic acid] | 174.45% | 3010 nM | 49.14% | 3330 nM
CN(C)CC(CN(C)C)Oc1cc(C(=O)O)nc2c1c(C1CCC1)nn2-c1ccccc1 [compound 638, 4-{[1,3-bis(dimethylamino)propan-2-yl]oxy}-3-cyclobutyl-1-phenyl-1H-pyrazolo[3,4-b]pyridine-6-carboxylic acid] | 175.15% | 6660 nM | 24.93% | > 10000 nM
O=C(O)c1cc(OCCN2CCCCC2)c2c(C3CCC3)nn(-c3ccccc3)c2n1 [compound 639, 3-cyclobutyl-1-phenyl-4-[2-(piperidin-1-yl)ethoxy]-1H-pyrazolo[3,4-b]pyridine-6-carboxylic acid] | 261.7% | 1670 nM | 96.54% | 2210 nM
O=C(O)c1cc(OCCN2CCNC2=O)c2c(C3CCC3)nn(-c3ccccc3)c2n1 [compound 640, 3-cyclobutyl-4-[2-(2-oxoimidazolidin-1-yl)ethoxy]-1-phenyl-1H-pyrazolo[3,4-b]pyridine-6-carboxylic acid] | 137.45% | > 10000 nM | 13.97% | > 10000 nM
